Test results: patent US6338963B1, “Use of carbon monoxide dependent guanylyl cyclase modifiers to stimulate neuritogenesis” (NeoTherapeutics, Inc., priority 1994, dated 2002)
Marks after values point to notes of the source that are not given here.

Key:
[1] = system: cultured neurons from rat cerebral cortex; test: NMDA-induced toxicity in cultured rat cortical neurons, astrocyte conditioned medium; type: cell-based
Protocol: In these experiments, cultured neurons were prepared from rat cerebral cortex. In these cultures the NMDA pulse (100 μM for 10 min) provoked about 80% neuronal death (measured by Trypan blue cell staining or LDH activity). Separately, cultured astrocytes were treated for 6 hours with AIT-082. Then, the medium containing the drug was replaced with fresh medium without the drug and the astrocyte cultures were maintained in this medium for the next 24 hours. This medium represented the CM and was added to neurons soon after the toxic pulse with NMDA. The addition of CM partly counteracted the toxic effects caused by NMDA, reducing the neuronal damage by about 50%. If the medium was boiled for 20 min at 100° C. prior to addition to NMDA-damaged neurons, it completely lost the protective activity. […] To verify whether the neuroprotection caused by AIT-082 was ascribable to the production of TGFβ2 or NGF, antibodies to TGFβ2 or to NGF (100 ng/ml) were added together with CM.
Conversely, when DPCPX (100 nm) was added to astrocyte cultures together with AIT-082, the neuroprotective effect of the resulting CM deriving from the culture of the astrocytes with AIT-082 was reduced by only 20%, as compared to the neuroprotective effect of CM derived from astrocytes exposed to AIT-082 alone (assumed as equal to 100%).

[2] = system: Swiss Webster mice; test: Win-shift T-maze memory test, Swiss Webster mice; type: in vivo; conditions: 90-second inter-trial interval, PHY 0.125 mg/kg i.p.
Protocol: Male Swiss Webster mice six months (young adult) and eleven months (old) of age, obtained from the National Institute on Aging, were maintained in individual cages, on a […] light/dark cycle with continuous access to water. Food was limited so that the mice stabilized at 80% of free feeding weight. Mice were weighed and handled daily for one week. The win-shift model was run as described in the literature and consists of a T-maze in which the correct response alternates after each correct trial. The interval between trials is varied and allows for the determination of the longest period between trials that a subject can remember the correct response on the previous trial. This allows the measure of the duration of the memory trace. […] The reward goal box is alternated after each correct trial. Ten trials per mouse are run each day. […] The latency time to leave the start box is recorded as a measure of motivation, the running time (the time from leaving the start box to reaching the goal box) is recorded as a measure of performance, and the number of correct responses as a measure of memory.
The drugs used in this example are 4-((3-(1,6-dihydro-6-oxo-9-purin-9-yl)-1-oxopropyl)amino) benzoic acid (AIT-082), as an exemplary potassium salt, tacrine hydrochloride (tetrahydroaminoacridine, THA, Sigma Chemical Co., St. Louis, Mo.), and physostigmine, hemisulfate salt (PHY, Sigma Chemical Co., St. Louis, Mo.). The drugs were dissolved in saline and prepared fresh daily. All injections were made at a volume of 0.1 ml/10 grams body weight. When testing drug effects, intraperitoneal (i.p.) injections of AIT-082 or THA were made one hour prior to the start of testing. Due to its shorter duration of action, PHY was injected 30 minutes prior to testing. Control subjects receive a similar injection of saline (vehicle).
(§1) To determine the duration of the memory trace, subjects were administered drug or saline and 30 minutes (PHY) or 1 hour (AIT-082 or THA) later they were given a single reference run with the milk reward in both goal boxes. After the indicated inter-trial delay, subjects were returned to the start box and given the first test trial with the milk reward only in the goal box opposite to the one entered on the previous correct trial. The subjects were given 10 trials with the reward alternating only after correct responses.
To determine if tolerance to the biological effects of AIT-082 developed, drug or saline was administered daily for 18 days prior to the testing in the standard win-shift paradigm.

[3] = system: C57BL/6 mice; test: Win-shift duration of memory trace, C57BL/6 mice; type: in vivo; conditions: for Correct (Mean score ± S.E.) / No. above chance/Total #: Physostigmine 0.125 mg/kg
Protocol: as §1
Previous work has established that normal adult Swiss Webster mice have a memory trace duration of 60 seconds in the win-shift paradigm which may be increased by the administration of AIT-082.

[4] = system: Swiss Webster mice; test: Win-shift test, Swiss Webster mice with age-induced memory deficits; type: in vivo; conditions: PHY 0.125 mg/kg
Protocol: Twelve-month old male Swiss Webster mice were screened for performance in the win-shift foraging test. Subjects were tested at various time delays, beginning at 10 seconds and increasing the inter-trial time interval to 30, 60, 90 and 120 seconds.
Subjects with severe impairment could not remember the correct response at 10 seconds while subjects with mild deficit could remember the correct response with a 30 second inter-trial interval but not at 60 seconds. Subjects with a moderate deficit could remember the correct response with a 10 second inter-trial interval but not […] at 30 seconds. Thus, the win-shift model can detect age-induced impairments in working memory. As will be appreciated by those skilled in the art, this observation is important since it provides the ability to use age-matched subjects with varying degrees of impairment for evaluation of potential therapeutic agents.
Following the establishment of a baseline, six subjects in each of the three groups were treated with AIT-82 (30 mg/kg, one hour before testing) or physostigmine (0.125 mg/kg, 30 minutes before testing) using the win-shift foraging test. The results are presented in Table L directly below and graphically represented in FIG. 9.

[5] = system: C57BL/6 mice; test: Win-shift test, C57BL/6 mice with age-induced memory deficits; type: in vivo; conditions: for subjects performing significantly above chance/total number of subjects: PHY 0.125 mg/kg
Protocol: Twelve-month old male C57BL/6 mice were screened for performance in the win-shift foraging test. Subjects were tested at various inter-trial time intervals. Subjects who could not perform to criteria (>60% correct) at 10 seconds delay were classified as having a severe deficit. Subjects who performed to criteria at 10 seconds but not at 30 seconds were classified as having a moderate degree of deficit and subjects who performed to criteria at 30 seconds but not at 60 seconds were classified as having mild deficit. As in Example 21, subjects in each group were treated with either AIT-082 or PHY to determine the extent to which the working memory trace was prolonged. The results are presented in Table M directly below and graphically represented in FIG. 10.

[6] = system: NGF; test: NGF release from rat cultured astrocytes (ELISA); type: cell-based; conditions: for effect of inhibitor on AIT-082-induced accumulation of NGF: 100 nm wortmannin, 10 μM PD098,059 or 500 ng/ml CHX added 30 min before and kept 24 hours with 100 μM AIT-082
Protocol: The dose response for AIT-082 and guanosine on nerve growth factor and S100β protein release from rat culture astrocytes is shown in FIG. 30. NGF was assayed by a double-site ELISA, using a monoclonal anti-NGF antibody, coupled or not to β-galactosidase according to the method of I. D. Laviada et al., “Phosphatidylcholine-Phospholipase C Mediates the Induction of Nerve Growth Factor in Cultured Glial Cells,” FEBS Lett. 364: 301-304 (1995).
(§2) The NGF and S100β protein were measured by removing the cultured medium for the ELISA assays at each indicated time point.
(§3) NGF and TGFβ2 levels were assayed in the culture medium of the astrocytes by specific ELISA assays using kits from Roche (Germany) and Promega (USA) respectively. NGF basal levels were 56.3±3.2 pg/ml. TGFβ2 levels were 9.1±0.06 pg/ml.
(§4) In FIG. 61, the dose-response curves of NGF and TGFβ2 release from rat cultured astrocytes as the result of exposure to AIT-082 are shown.

[7] = system: TGFβ2; test: TGFβ2 release from rat cultured astrocytes (ELISA); type: cell-based; conditions: 100 nm wortmannin, 10 μM PD098,059 or 500 ng/ml CHX added 30 min before and kept 24 hours with 100 μM AIT-082
Protocol: as §3, §4

[8] = system: cGMP levels in PC12 cells; test: cGMP levels in PC12 cells (radioimmunoassay); type: cell-based, rat; conditions: NGF-primed PC12 cells
Protocol: Initially, PC-12 cells were primed with 40 ng/ml NGF for 3 days in low serum medium (1.5% horse serum+5% fetal calf serum). Cells were seeded onto assay plates in low serum medium containing 40 ng/ml NGF and incubated for 1 hour. The medium was changed to low arginine medium (80 μM) with no serum and NGF and papaverine ([…]) where indicated. Test compounds were added for the indicated time and the reaction was stopped by adding 5% TCA containing 10,000 dpm of ^3H-cGMP. cGMP was assayed by the radioimmunoassay method of Maurice (Mol. Pharmacol. 37: 671-681, 1990). TCA was purified by adding powdered charcoal (5 g) and filtering the mixture through Whatman #1 paper. This removed contaminants in the TCA that otherwise interfere with the radioimmunoassay (RIA) of cGMP.
It was necessary to purify the cGMP from cAMP and other contaminants before radioimmunoassay since these other materials can interfere with the assay. Briefly, the TCA solution was applied to Dowex columns (50W-8X, 200-400 mesh) and eluted. A neutral alumina column was then placed under each Dowex column. The cGMP was eluted from the Dowex columns into neutral alumina columns by adding 4 mL of 0.05 M HCl to each Dowex column. The neutral alumina columns were then sequentially rinsed with 2 ml of HCl, 4 mL water and finally with 0.2 M sodium acetate (pH 6.2). The cGMP collected for the RIA eluted in 1 ML of sodium acetate with a recovery between 50-65%. The cGMP was assayed using a Dupont RIA kit.

[9] = system: S100β protein; test: S100β protein release from rat cultured astrocytes (ELISA); type: cell-based; conditions: cycloheximide 0.5 μg/ml, AIT-082 100 μ
Protocol: The S100β protein was measured by using an ELISA as described in A. Aurell et al., “The S-100 Protein in Cerebrospinal Fluid: A Simple ELISA Method,” J.Neurol. Sci. 89: 157-164 (1989).
as §2

[10] = Moderate deficit, interval 30 sec
[11] = Moderate deficit, interval 60 sec
[12] = Severe deficit, interval <10 sec

CCCn1c(=O)c2[nH]c(C3CCCC3)nc2n(CCC)c1=O [DPCPX, 8-cyclopentyl-1,3-dipropylxanthine]
reduction of neuroprotective effect of resulting CM ([1]; DPCPX 100 nm added to astrocyte cultures together with AIT-082): 20% | effect on neuroprotective effect of astrocyte-derived CM ([1]; DPCPX 100 nm added with CM to injured cortical neurons): did not modify the neuroprotective effect

physostigmine, hemisulfate salt [reference compound]
Win-shift Memory Test, Correct responses [2]: 6.5 Correct responses/10 trials | Correct (Mean score ± S.E.) ([3]; inter-trial interval 180 sec): 65 ± 16 | No. above chance/Total # ([3]; inter-trial interval 180 sec): 3/6 | Correct (Mean score ± S.E.) ([3]; inter-trial interval 210 sec): 53 ± 9 | No. above chance/Total # ([3]; inter-trial interval 210 sec): 1/6 | duration of the memory trace ([3]; physostigmine, untreated 120 seconds): 180 s | subjects performing significantly above chance/total number of subjects ([4]; Mild deficit, interval 60 sec): 5/6* | subjects performing significantly above chance/total number of subjects ([4]; Mild deficit, interval 90 sec): 3/6 | subjects performing significantly above chance/total number of subjects ([4]; Mild deficit, interval 120 sec): 2/6 | subjects performing significantly above chance/total number of subjects ([4]; Mild deficit, interval 150 sec): 2/6 | subjects performing significantly above chance/total number of subjects ([4]; Mild deficit, interval 180 sec): 1/6 | subjects performing significantly above chance/total number of subjects ([4]; Mild deficit, interval 210 sec): 0/6 | subjects performing significantly above chance/total number of subjects [4, 10]: 1/6 | subjects performing significantly above chance/total number of subjects [4, 11]: 0/6 | subjects performing significantly above chance/total number of subjects [4, 12]: 0/6 | subjects performing significantly above chance/total number of subjects ([5]; Mild deficit, interval 60 sec): 7/8* | subjects performing significantly above chance/total number of subjects ([5]; Mild deficit, interval 90 sec): 3/8 | subjects performing significantly above chance/total number of subjects ([5]; Mild deficit, interval 120 sec): 2/8 | subjects performing significantly above chance/total number of subjects ([5]; Mild deficit, interval 150 sec): 2/8 | subjects performing significantly above chance/total number of subjects ([5]; Mild deficit, interval 180 sec): 2/8 | subjects performing significantly above chance/total number of subjects ([5]; Mild deficit, interval 210 sec): 0/8 | subjects performing significantly above chance/total number of subjects ([5]; Moderate deficit, interval 10 sec): 6/6 | subjects performing significantly above chance/total number of subjects [5, 10]: 1/6 | subjects performing significantly above chance/total number of subjects [5, 11]: 0/6 | subjects performing significantly above chance/total number of subjects [5, 12]: 0/6 | prolongation of memory ([5]; moderate deficit group, PHY): ineffective in the moderate group

COc1cccc(-c2cc(=O)c3ccccc3o2)c1N [PD098,059, reference compound]
effect of inhibitor on AIT-082-induced accumulation of NGF [6]: partly inhibited | effect of inhibitor on AIT-082-induced accumulation of TGFβ2 [7]: partly inhibited

CNc1ccc2oc(C[C@H]3O[C@@]4(CC[C@H]3C)O[C@H]([C@H](C)C(=O)c3ccc[nH]3)[C@H](C)C[C@H]4C)nc2c1C(=O)O [A23187, reference compound]
cGMP in PC12 cells [8]: failed to elicit an increase in cGMP

C[C@@H]1C[C@@H]([C@H](O)CC2CC(=O)NC(=O)C2)C(=O)[C@@H](C)C1 [cycloheximide, reference compound]
effect of inhibitor on AIT-082-induced accumulation of NGF [6]: partly inhibited | effect of cycloheximide on AIT-082-evoked release of NGF ([6]; cycloheximide 0.5 μg/ml, AIT-082 100 μ): abolished the stimulatory effect of AIT-082 | effect of cycloheximide on AIT-082-evoked accumulation of S100β protein [9]: only slightly modified | effect of inhibitor on AIT-082-induced accumulation of TGFβ2 [7]: partly inhibited
